According to patent EP0318860B1, “Substituted alkylamine derivatives” (BANYU PHARMACEUTICAL CO., LTD., priority 1987, dated 1989):
Structures can show the parent of a compound that is named as a salt.

What follows are compounds tested on cholesterol biosynthesis in the cultured Hep-G2 cells (assay: Inhibitory activity on cholesterol biosynthesis in cultured cells ([14C] acetate incorporation)). Conditions: HepG2; Human hepatoma (Hep-G2) cells, [14C] sodium acetate, 6 hours; read-out: 50% inhibitory concentration (IC₅₀).
Type: cell-based
Protocol: Human hepatoma (Hep-G2) cells were cultured in 10 cm² dishes until they formed a monolayer. One milliliter of the culture medium was replaced, and 1 µCi of [¹⁴C] sodium acetate and 1 microliter of a dimethyl sulfoxide solution of a test drug were added, and the cells were cultured at 37 °C in air containing 5 % of carbon dioxide for 6 hours.
After the cultivation, the medium was aspirated, and the cells were cooled with ice, and washed with Dulbecco's phosphate buffered saline solution. The resulting cells were scraped by a rubber policeman, and collected by centrifugation. The cells collected were dissolved in 400 microliters of 0.3N sodium hydroxide. A 200 microliters aliquot of the solution was used for extraction, and the remainder, for protein determination.
To 200 microliters of the extracted cells, 15 % ethanolic potassium hydroxide was added, and saponification was carried out at 75 °C for 1 hour. Water (1 ml) was then added, and the mixture was extracted with 2 ml of petroleum ether twice to remove non-saponified materials. The petroleum ether extracts were washed with 1 ml of water, and evaporated under a nitrogen stream. The residue was spotted on a pre-coated silica gel TLC plate using a small amount of chloroform, and developed with hexane/ethyl ether/acetic acid (85:15:4). Cholesterol and squalene portions on the TLC were detected with iodine, and the corresponding TLC portions were cut out. The TLC strips were immersed in a toluene-type scintillator, and radioactivity was counted by a liquid scintillation counter. The results were corrected by the amount of proteins measured by the method described in J. Biol. Chem., vol. 193, page 265, 1951. The 50 % inhibitory concentration (IC₅₀ value) of the compound of the invention on cholesterol biosynthesis in the cultured Hep-G2 cells was calculated.

Work on `CCN(C/C=C/C#CC(C)(C)C)Cc1cccc(OCc2ccccc2)c1` [Compound 36, (E)-N-(6,6-dimethyl-2-hepten-4-ynyl)-N-ethyl-3-benzyloxybenzylamine hydrochloride] yielded an IC50 of 64 nM.

The compounds below were run against T1, rat squalene epoxidase (Rattus norvegicus, UniProt P52020) (assay: Squalene epoxidase inhibiting activity (3H-squalene to squalene-2,3-epoxide, solubilized liver microsome fraction)). Conditions: 8 µM 3H-squalene, 37 °C, 30 minutes, read-out: 50 % inhibitory concentration (IC50).
T1 construct: Livers were extracted and homogenized; from tissue; host or cells: liver of SD-strain female rats; microsomes solubilized with 2 % Triton X-100, 105000 x g supernatant
Type: biochemical
Protocol: The rat squalene epoxidase was prepared by the method described in J. Biol. Chem., vol.
SD-strain female rats were killed by exsanguination. Livers were extracted and homogenized with in the presence of 2 volumes of 0.1M Tris-HCl buffer (pH 7.5). The homogenate was centrifuged at 9750 Xg for 10 minutes. The supernatant fraction was further centrifuged at 105000 Xg for 1 hour. The sediment was washed with 0.1M Tris-HCl buffer (pH 7.5), and then centrifuged at 105000 Xg for 1 hour. The microsomes obtained were suspended in 0.1M Tris-HCl buffer (pH 7.5) so that the amount of proteins was 40 mg/ml, and under ice cooling, the suspension was stirred in the presence of 2 % Triton X-100 to solubilize the enzyme. After the solubilization, the solution was diluted to a Triton X-100 concentration of 0.5 % with 1 mM EDTA and 1 mM dithiothreitol, and centrifuged at 105000 Xg for 1 hour. The resulting supernatant fraction was used in the following test as a squalene epoxidase fraction.
The squalene epoxidase activity was assayed in accordance with the method described in J. Biol. Chem., vol.
Three microliters of a dimethyl sulfoxide solution of a test drug was added to a solution composed of 0.2 ml of the squalene epoxidase fraction prepared in (1) [proteins 0.4 mg, 0.5 % Triton X-100, […] Tris-HCl buffer (pH 7.5)], 100 µM FAD, 1 mM NADPH, 1 mM EDTA and 8 µM ³H-squalene-Tween 80 emulsion to adjust the total amount of the solution to 0.3 ml. The solution was incubated at 37 °C for 30 minutes with shaking. Then, 0.3 ml of a 10 % methanolic potassium hydroxide was added to stop the reaction, and the reaction mixture was left to stand at room temperature for 1 hour. The non-saponified material was extracted with petroleum ether, and the solvent was evaporated under a nitrogen stream. […] The position of the resulting ³H-squalene-2,3-epoxide on TLC was determined using ergosterol acetate as a marker, and the ³H-squalene-2,3-epoxide portion on the TLC was cut off. The TLC strip was immersed in a toluene-type scintillator, and measured by a liquid scintillation counter.

T1 sequence (P52020 whole entry): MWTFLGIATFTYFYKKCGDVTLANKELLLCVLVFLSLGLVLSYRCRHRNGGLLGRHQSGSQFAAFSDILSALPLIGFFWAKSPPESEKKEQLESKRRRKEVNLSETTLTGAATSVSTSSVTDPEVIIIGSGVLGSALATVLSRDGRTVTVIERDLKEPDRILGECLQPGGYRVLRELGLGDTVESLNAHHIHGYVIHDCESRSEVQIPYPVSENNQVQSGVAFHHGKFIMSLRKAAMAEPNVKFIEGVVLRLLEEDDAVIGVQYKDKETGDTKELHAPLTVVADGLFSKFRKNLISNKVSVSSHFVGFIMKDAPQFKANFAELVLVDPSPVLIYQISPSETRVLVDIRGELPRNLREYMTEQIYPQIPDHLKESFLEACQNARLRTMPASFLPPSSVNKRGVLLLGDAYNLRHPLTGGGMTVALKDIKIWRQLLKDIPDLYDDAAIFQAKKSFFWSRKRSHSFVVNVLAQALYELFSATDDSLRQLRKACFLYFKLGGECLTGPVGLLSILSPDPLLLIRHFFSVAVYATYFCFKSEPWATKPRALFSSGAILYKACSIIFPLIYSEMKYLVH

First: CCN(C/C=C/C#CC(C)(C)C)Cc1cccc(OCc2ccccc2)c1 [Compound 36, (E)-N-(6,6-dimethyl-2-hepten-4-ynyl)-N-ethyl-3-benzyloxybenzylamine hydrochloride]
Second: CCN(C/C=C/C#CC(C)(C)C)Cc1cccc(OCc2cccc(-n3cccc3)c2)c1 [Compound 119, (E)-N-(6,6-dimethyl-2-hepten-4-ynyl)-N-ethyl-3-[3-(1-pyrrolyl)benzyloxy]benzylamine]
The IC50 of the first is 42-fold higher: 300 nM for the first, 7.1 nM for the second.

`CN(C/C=C/C#CC(C)(C)C)Cc1cccc(OCc2cccc(-c3ncco3)c2)c1` [Compound 76, (E)-N-(6,6-dimethyl-2-hepten-4-ynyl)-N-methyl-3-[3-(2-oxazolyl)benzyloxy]benzylamine] and `CN(C/C=C/C#CC(C)(C)C)Cc1cccc(OCc2cccc(-c3nccs3)c2)c1` [Compound 77, (E)-N-(6,6-dimethyl-2-hepten-4-ynyl)-N-methyl-3-[3-(2-thiazolyl)benzyloxy]benzylamine] are the same in IC50: 1200 nM for the first, 1200 nM for the second.

`CN(C/C=C/C#CC(C)(C)C)Cc1cccc(OCc2cccc(-n3cccc3)c2)c1` [Compound 81, (E)-N-(6,6-dimethyl-2-hepten-4-ynyl)-N-methyl-3-[3-(1-pyrrolyl)benzyloxy]benzylamine] and `CCCN(C/C=C/C#CC(C)(C)C)Cc1cccc(OCc2cccc(-n3cccc3)c2)c1` [Compound 122, (E)-N-(6,6-dimethyl-2-hepten-4-ynyl)-N-propyl-3-[3-(1-pyrrolyl)benzyloxy]benzylamine] are within 1.5-fold of each other in IC50: 14 nM for the first, 13 nM for the second.

First: Cc1ccoc1COc1cccc(CN(C)C/C=C/C#CC(C)(C)C)c1 [Compound 82, (E)-N-(6,6-dimethyl-2-hepten-4-ynyl)-N-methyl-[(3-methyl-2-furyl)methyloxy]benzylamine]
Second: Cc1occc1COc1cccc(CN(C)C/C=C/C#CC(C)(C)C)c1 [Compound 83, (E)-N-(6,6-dimethyl-2-hepten-4-ynyl)-N-methyl-3-[(2-methyl-3-furyl)methyloxy]benzylamine]
The IC50 of the first is 2.2-fold lower: 870 nM for the first, 1900 nM for the second. The first is the more potent here.

First: CN(C/C=C/C#CC(C)(C)C)Cc1cccc(OCc2cccs2)c1 [Compound 86, (E)-N-(6,6-dimethyl-2-hepten-4-ynyl)-N-methyl-3-(2-thienylmethyloxy)benzylamine]
Second: CN(C/C=C/C#CC(C)(C)C)Cc1cccc(OCc2cccc(C=O)c2)c1 [Compound 95, (E)-N-(6,6-dimethyl-2-hepten-4-ynyl)-N-methyl-3-(3-formylbenzyloxy)benzylamine]
The IC50 of the first is 2.1-fold lower: 3300 nM for the first, 6800 nM for the second.

Compared with `CN(C/C=C/C#CC(C)(C)C)Cc1cccc(OCc2cccc3cccnc23)c1` [Compound 87, (E)-N-(6,6-dimethyl-2-hepten-4-ynyl)-N-methyl-3-(8-quinolylmethyloxy)benzylamine hydrochloride], `CN(C/C=C/C#CC(C)(C)C)Cc1cccc(OCc2cccc(CO)c2)c1` [Compound 96, (E)-N-(6,6-dimethyl-2-hepten-4-ynyl)-N-methyl-3-(3-hydroxymethylbenzyloxy)benzylamine] is 4.2-fold lower in IC50: 3500 nM for the first, 840 nM for the second. The second is the more potent here.

Going from `C/C=C(\C)COc1cccc(CN(C)C/C=C/C#CC(C)(C)C)c1` [Compound 90, N-[(E)-6,6-dimethyl-2-hepten-4-ynyl]-N-methyl-3-[(E)-2-methyl-2-butenyloxy]benzylamine hydrochloride] to `CC(C)=C(C)COc1cccc(CN(C)C/C=C/C#CC(C)(C)C)c1` [Compound 92, (E)-N-(6,6-dimethyl-2-hepten-4-ynyl)-N-methyl-3-(2,3-dimethyl-2-butenyloxy)benzylamine], the IC50 falls from 5500 nM to 3300 nM (1.7-fold). The second is the more potent here.

Compared with `Cc1ccccc1/C=C/c1cccc(CN(C)C/C=C/C#CC(C)(C)C)c1` [Compound 99, N-[(E)-6,6-dimethyl-2-hepten-4-ynyl]-N-methyl-3-[(E)-o-methylstyryl]benzylamine], `CN(C/C=C/C#CC(C)(C)C)Cc1cccc(/C=C/c2ccccn2)c1` [Compound 108, (E)-N-(6,6-dimethyl-2-hepten-4-ynyl)-N-methyl-3-[(E)-2-(2-pyridyl)vinyl]benzylamine] is 4.4-fold lower in IC50: 2000 nM for the first, 450 nM for the second.

Compared with `CN(C/C=C/C#CC(C)(C)C)Cc1cccc(/C=C/c2cccc3ccccc23)c1` [Compound 100, N-[(E)-6,6-dimethyl-2-hepten-4-ynyl]-N-methyl-3-[(E)-2-(1-naphthylvinyl)]benzylamine], `CN(C/C=C/C#CC(C)(C)C)Cc1cccc(NCc2ccccc2)c1` [Compound 102, (E)-N-(6,6-dimethyl-2-hepten-4-ynyl)-N-methyl-3-benzylaminobenzylamine] is 18-fold higher in IC50: 120 nM for the first, 2100 nM for the second. The first is the more potent here.

First: CN(C/C=C/C#CC(C)(C)C)Cc1cccc(C#Cc2ccccc2)c1 [Compound 101, (E)-N-(6,6-dimethyl-2-hepten-4-ynyl)-N-methyl-3-(2-phenylethynyl)benzylamine]
Second: CN(C/C=C/C#CC(C)(C)C)Cc1cccc(CNc2ccccc2)c1 [Compound 104, (E)-N-[6,6-dimethyl-2-hepten-4-ynyl]-N-methyl-3-anilinomethylbenzylamine hydrochloride]
The IC50 of the first is 3.7-fold lower: 2100 nM for the first, 7700 nM for the second.

Going from `Cc1ccccc1COc1ccnc(CN(C)C/C=C/C#CC(C)(C)C)c1` [Compound 112, (E)-N-(6,6-dimethyl-2-hepten-4-ynyl)-N-methyl-4-(2-methylbenzyloxy)-2-pyridylmethylamine] to `Cc1ccccc1COc1cccc(CN(C)C/C=C/C=C/C(C)(C)C)c1` [Compound 132, (E),(E)-N-(6,6-dimethyl-2,4-heptadienyl)-N-methyl-3-(2-methylbenzyloxy)benzylamine], the IC50 rises from 690 nM to 5400 nM (7.8-fold). The first is the more potent here.

Going from `CN(C/C=C/C#CC(C)(C)C)Cc1ccc(/C=C/c2ccccc2)o1` [Compound 115, N-[(E)-6,6-dimethyl-2-hepten-4-ynyl]-N-methyl-5-[(E)-styryl]furfurylamine] to `CN(C/C=C/C#CC(C)(C)C)Cc1csc(/C=C/c2ccccc2)n1` [Compound 117, N-[(E)-6,6-dimethyl-2-hepten-4-ynyl]-N-methyl-2-[(E)-styryl]-4-thiazolylmethylamine], the IC50 rises from 270 nM to 520 nM (1.9-fold).

Compared with `CCN(C/C=C/C#CC(C)(C)C)Cc1cccc(OCc2cccc(-c3cnco3)c2)c1` [Compound 120, (E)-N-(6,6-dimethyl-2-hepten-4-ynyl)-N-ethyl-3-[3-(5-oxazolyl)benzyloxy]benzylamine], `CCCN(C/C=C/C#CC(C)(C)C)Cc1cccc(OCc2cccc(-c3cnco3)c2)c1` [Compound 123, (E)-N-(6,6-dimethyl-2-hepten-4-ynyl)-N-propyl-3-[3-(5-oxazolyl)benzyloxy]benzylamine] is 13-fold higher in IC50: 2.7 nM for the first, 34 nM for the second.

Compared with `CCN(C/C=C/C#CC(C)(C)C)Cc1cccc(OCc2cccc(-c3cncs3)c2)c1` [Compound 121, (E)-N-(6,6-dimethyl-2-hepten-4-ynyl)-N-ethyl-3-[3-(5-thiazolyl)benzyloxy]benzylamine], `COC(C)(C)C#C/C=C/CN(C)Cc1cccc(OCc2ccccc2)c1` [Compound 126, (E)-N-(6-methoxy-6-methyl-2-hepten-4-ynyl)-N-methyl-3-benzyloxybenzylamine] is 85-fold higher in IC50: 26 nM for the first, 2200 nM for the second.

Compared with `Cc1ccccc1COc1cccc(CN(C)C/C=C/C#CC2(C)CC2)c1` [Compound 131, (E)-N-methyl-N-[5-(1-methylcyclopropyl)-2-penten-4-ynyl]-3-(2-methylbenzyloxy)benzylamine], `CN(C/C=C/c1ccccc1)Cc1cccc2ccccc12` [naftifine, reference compound] is higher in IC50: 1000 nM for the first, > 100000 nM for the second. The first is the more potent here.
